Assay results: PubChem BioAssay (NCI)
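All cell lines were grown in 96-well plates and treated with compound for 48 hours. The concentration for 50% growth inhibition is given as GI50. TGI is the concentration that stops growth completely.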

Columns and labels:
Experiment in all cases: growth of human tumour cells (NCI), 48 h; in the data active = GI50 below about 0.43 µM; inactive = the rest
[1] = tested on: 786-0 renal
[2] = tested on: A498 renal
[3] = tested on: A549 NSCLC
[4] = tested on: ACHN renal
[5] = tested on: BT-549 breast
[6] = tested on: CAKI-1 renal
[7] = tested on: CCRF-CEM leukemia
[8] = tested on: COLO 205 colon
[9] = tested on: DU-145 prostate
[10] = tested on: EKVX NSCLC
[11] = tested on: HCC-2998 colon
[12] = tested on: HCT-116 colon
[13] = tested on: HCT-15 colon
[14] = tested on: HL-60(TB) leukemia
[15] = tested on: HOP-62 NSCLC
[16] = tested on: HOP-92 NSCLC
[17] = tested on: HS 578T breast
[18] = tested on: HT29 colon
[19] = tested on: IGROV1 ovarian
[20] = tested on: K-562 leukemia
[21] = tested on: KM12 colon
[22] = tested on: LOX IMVI melanoma
[23] = tested on: MALME-3M melanoma
[24] = tested on: MCF7 breast
[25] = tested on: MDA-MB-231 breast
[26] = tested on: MDA-MB-435
[27] = tested on: MOLT-4 leukemia
[28] = tested on: NCI-H226 lung
[29] = tested on: NCI-H23 lung
[30] = tested on: NCI-H460 lung
[31] = tested on: NCI-H522 lung
[32] = tested on: NCI/ADR-RES ovarian
[33] = tested on: OVCAR-3 ovarian
[34] = tested on: OVCAR-4 ovarian
[35] = tested on: OVCAR-5 ovarian
[36] = tested on: OVCAR-8 ovarian
[37] = tested on: PC-3 prostate
[38] = tested on: RPMI-8226 leukemia
[39] = tested on: RXF 393 renal
[40] = tested on: SF-268 CNS
[41] = tested on: SF-295 CNS
[42] = tested on: SF-539 CNS
[43] = tested on: SK-MEL-2 melanoma
[44] = tested on: SK-MEL-28 melanoma
[45] = tested on: SK-MEL-5 melanoma
[46] = tested on: SK-OV-3 ovarian
[47] = tested on: SN12C renal
[48] = tested on: SNB-19 CNS
[49] = tested on: SNB-75 CNS
[50] = tested on: SR leukemia
[51] = tested on: SW-620 colon
[52] = tested on: T-47D breast
[53] = tested on: TK-10 renal
[54] = tested on: U251 CNS
[55] = tested on: UACC-257 melanoma
[56] = tested on: UACC-62 melanoma
[57] = tested on: UO-31 renal

CS(=O)(=O)c1ccc(Oc2cc(F)cc(C#N)c2)c2c1[C@H](O)[C@H](F)[C@H]2F
inactive: GI50 [1] > 100 µM | GI50 [2] > 100 µM | GI50 [3] > 100 µM | GI50 [4] > 100 µM | GI50 [5] > 100 µM | GI50 [6] > 100 µM | GI50 [7] > 100 µM | GI50 [8] > 100 µM | GI50 [9] > 100 µM | GI50 [10] > 100 µM | GI50 [11] > 100 µM | GI50 [12] > 100 µM | GI50 [13] > 100 µM | GI50 [14] > 100 µM | GI50 [15] > 100 µM | GI50 [16] > 100 µM | GI50 [17] > 100 µM | GI50 [18] > 100 µM | GI50 [19] > 100 µM | GI50 [20] > 100 µM | GI50 [21] > 100 µM | GI50 [22] > 100 µM | GI50 [23] > 100 µM | GI50 [24] > 100 µM | GI50 [25] > 100 µM | GI50 [26] > 100 µM | GI50 [27] > 100 µM | GI50 [28] > 100 µM | GI50 [29] > 100 µM | GI50 [30] > 100 µM | GI50 [31] > 100 µM | GI50 [32] > 100 µM | GI50 [33] > 100 µM | GI50 [34] > 100 µM | GI50 [35] > 100 µM | GI50 [36] > 100 µM | GI50 [37] > 100 µM | GI50 [38] > 100 µM | GI50 [39] 2.53 µM | GI50 [40] > 100 µM | GI50 [41] > 100 µM | GI50 [42] > 100 µM | GI50 [43] > 100 µM | GI50 [44] > 100 µM | GI50 [45] > 100 µM | GI50 [46] > 100 µM | GI50 [47] > 100 µM | GI50 [48] > 100 µM | GI50 [49] > 100 µM | GI50 [50] > 100 µM | GI50 [51] > 100 µM | GI50 [52] > 100 µM | GI50 [53] > 100 µM | GI50 [54] > 100 µM | GI50 [55] > 100 µM | GI50 [56] > 100 µM | GI50 [57] > 100 µM
> 100 µM: TGI [1] | TGI [2] | TGI [3] | TGI [4] | TGI [5] | TGI [6] | TGI [7] | TGI [8] | TGI [9] | TGI [10] | TGI [11] | TGI [12] | TGI [13] | TGI [14] | TGI [15] | TGI [16] | TGI [17] | TGI [18] | TGI [19] | TGI [20] | TGI [21] | TGI [22] | TGI [23] | TGI [24] | TGI [25] | TGI [26] | TGI [27] | TGI [28] | TGI [29] | TGI [30] | TGI [31] | TGI [32] | TGI [33] | TGI [34] | TGI [35] | TGI [36] | TGI [37] | TGI [38] | TGI [39] | TGI [40] | TGI [41] | TGI [42] | TGI [43] | TGI [44] | TGI [45] | TGI [46] | TGI [47] | TGI [48] | TGI [49] | TGI [50] | TGI [51] | TGI [52] | TGI [53] | TGI [54] | TGI [55] | TGI [56] | TGI [57]
